Results as given in PubChem BioAssay (NCI).
Values joined by “and” are separate entries in the source; they are usually repeats but may differ in a detail not shown here. Equal entries are not always repeated.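 1) Cells in 96-well plates. 2) Compound, 48 h, 5 concentrations. 3) Linear interpolation between surrounding doses. 4) Unreached endpoint = highest concentration. GI50 is the concentration that inhibits growth by half. TGI marks complete inhibition of growth.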 Where a SMILES comes first, the peptide text is derived from it. [ ]: non-standard residue; d: D form. Ac5c = NC1(C(=O)O)CCCC1

How the values were obtained:
Assay in all cases: growth of human tumour cells (NCI), 48 h
LOX IMVI melanoma = tested on: LOX IMVI melanoma
SW-620 colon = tested on: SW-620 colon
MDA-MB-231 breast = tested on: MDA-MB-231 breast
DU-145 prostate = tested on: DU-145 prostate
UACC-257 melanoma = tested on: UACC-257 melanoma
HCT-15 colon = tested on: HCT-15 colon
SK-MEL-28 melanoma = tested on: SK-MEL-28 melanoma
NCI-H522 lung = tested on: NCI-H522 lung
NCI-H226 lung = tested on: NCI-H226 lung
PC-3 prostate = tested on: PC-3 prostate

SMILES | GI50 (LOX IMVI melanoma) | TGI (LOX IMVI melanoma) | GI50 (SW-620 colon) | TGI (SW-620 colon) | GI50 (MDA-MB-231 breast) | TGI (MDA-MB-231 breast) | GI50 (DU-145 prostate) | TGI (DU-145 prostate) | GI50 (UACC-257 melanoma) | TGI (UACC-257 melanoma) | GI50 (HCT-15 colon) | TGI (HCT-15 colon) | GI50 (SK-MEL-28 melanoma) | TGI (SK-MEL-28 melanoma) | GI50 (NCI-H522 lung) | TGI (NCI-H522 lung) | GI50 (NCI-H226 lung) | TGI (NCI-H226 lung) | GI50 (PC-3 prostate) | TGI (PC-3 prostate)
Cn1c([N+](=O)[O-])cnc1/C=C1\Oc2ccccc2C1=O | 0.176 µM | 0.506 µM | 0.15 µM | 2.02 µM | 0.703 µM | 4.39 µM | 0.307 µM | 1.15 µM | 0.682 µM | 2.84 µM | 0.193 µM | 0.675 µM | 0.43 µM | 3.36 µM | 0.552 µM | 2.26 µM | 1.68 µM | 4.91 µM | 1.46 µM | > 22.7 µM
COc1cc(Nc2nccc(Nc3ccc4c(C)[nH]nc4c3)n2)cc(OC)c1OC | 0.963 µM | 3.98 µM | 2.71 µM | 15.1 µM | 1.76 µM | 10.5 µM | 2.44 µM | 7.43 µM | 1.22 µM | 5.96 µM | 2.84 µM | > 25 µM | 3.28 µM | 14.4 µM | 1.52 µM | 7.18 µM | 1.01 µM | 7.1 µM | 2.33 µM | > 20.5 µM
CCOC(=O)Nc1nc2ccc(Cn3cccc3)cc2[nH]1 |  | > 100 µM |  | > 100 µM |  | > 27.2 µM |  | > 52.5 µM |  | 26.2 µM |  | > 100 µM |  | > 100 µM |  | 2.1 µM |  | 32.1 µM |  | > 38.2 µM
CCN(CC)CCCC(C)Nc1c2ccc(Cl)cc2nc2ccc(OC)cc12 (centres undefined) | 1.52 µM | 3.56 µM and 2.57 µM | 1.18 µM | 8.55 µM and 4.35 µM | 0.968 µM |  | 2.28 µM | 6.37 µM |  | 3.43 µM and 3.38 µM | 1.61 µM | 7.18 µM and 5.67 µM | 2.27 µM | 4.4 µM and 3.1 µM |  | 2.97 µM |  | 10.7 µM | 2.24 µM | 9.19 µM and 5.73 µM
NC1(C(=O)NC2(C(=O)O)CCCC2)CCCC1 (H-[Ac5c]-[Ac5c]-OH) |  | > 100 µM |  | > 100 µM |  | > 100 µM |  | > 100 µM |  | > 100 µM |  | > 100 µM |  | > 100 µM |  | > 100 µM |  | > 100 µM |  | > 100 µM
NOCC(=O)O | > 100 µM | > 100 µM | > 100 µM | > 100 µM | 53.2 µM | > 100 µM | > 100 µM | > 100 µM | > 100 µM | > 100 µM | > 100 µM | > 100 µM | > 100 µM | > 100 µM | 25.9 µM | > 100 µM | > 100 µM | > 100 µM | > 100 µM | > 100 µM
CC(=O)[O-].CC(=O)[O-].[Pt+2].c1cscn1.c1cscn1 | 65.7 µM | > 100 µM | 47.5 µM | > 100 µM | > 100 µM | > 100 µM | 22.9 µM | > 100 µM | 31.9 µM | 85.3 µM | 77.5 µM | > 100 µM | > 100 µM | > 100 µM | 20.8 µM | 42.2 µM | > 100 µM | > 100 µM | > 100 µM | > 100 µM
CCN(CC)c1cc2c3c(c1)CCCN3CCC2 |  | > 10 µM |  | > 10 µM |  | > 10 µM |  | > 10 µM |  | > 10 µM |  | > 10 µM |  | > 10 µM |  | > 10 µM |  | > 10 µM |  | > 10 µM
Cc1cc(I)cc(CN(C)CCCN2CCSCC2)c1O | 17.2 µM | 33.5 µM | 19.4 µM | 38.9 µM | 27.8 µM | 92.3 µM | 41 µM | > 100 µM | 26.4 µM | 92.1 µM | 17.8 µM | 37.2 µM | 27.9 µM | 87.6 µM | 23.6 µM | 55.9 µM | 39.5 µM | > 100 µM | 29.8 µM | > 100 µM
CC(=O)N[C@H]1C=C[C@@H]2/C=C(C)/C=C/[C@@H](C)[C@H]([C@H](C)[C@H](O)[C@@H](C)NC(C)=O)OC(=O)/C=C/C=C(C)\C=C\[C@]2(C)C1 | 0.00734 µM and < 0.0045 µM | 0.016 µM and < 0.0045 µM | 0.0178 µM and 0.0045 µM | 4.65 µM and > 45 µM | 0.00333 µM and < 0.0045 µM | 0.0235 µM and < 0.0045 µM | 0.0294 µM and 0.00897 µM | 4.65 µM and > 45 µM |  | 4.65 µM and 16.5 µM | 0.0361 µM and 0.00939 µM | 4.65 µM and > 45 µM | 0.0306 µM and 0.00647 µM | 4.65 µM and > 45 µM | 0.0368 µM and 0.00931 µM | 4.65 µM and 8.99 µM | 0.0157 µM and 0.0045 µM | 4.65 µM and 7.18 µM | 0.0202 µM and 0.0045 µM | 4.65 µM and > 45 µM
CCN(CC)CC(O)CNc1ccc(NCC2CO2)c2c1C(=O)c1ccccc1C2=O (centres undefined) | 0.00454 µM | 0.0392 µM and 0.0576 µM | 0.0713 µM | 0.797 µM |  | 3.01 µM |  | 5.04 µM |  | 4.04 µM | 0.417 µM | 6.35 µM | 0.631 µM | 3.5 µM | 0.958 µM | 2.41 µM | 0.958 µM | 3.21 µM | 0.395 µM | 3.06 µM
COc1cc(OC)cc(C2CC(=O)Nc3c2c(C)nn3-c2nc3ccccc3[nH]2)c1 (centres undefined) | 2.09 µM | 4.44 µM | 3.31 µM | 12.9 µM | 3.66 µM | > 100 µM | 3.73 µM | 17.1 µM | 2.64 µM | 7.32 µM | 3.73 µM | > 100 µM | 3.64 µM | 70 µM | 2.08 µM | 5.58 µM | 2.52 µM | 6.38 µM | 3.09 µM | 41.7 µM
CC(=O)c1c(C)[nH]c(-c2nc3ccc(N4CCN(C)CC4)cc3[nH]2)c1-c1ccc(OCC2CCOCC2)cc1 | 0.318 µM | 1.45 µM | 1.68 µM | 18 µM | 0.946 µM | 16.9 µM | 5.09 µM | 24.8 µM | 0.789 µM | 4.42 µM | 0.456 µM | 5.8 µM | 1.62 µM | 17 µM | 0.548 µM | 13.8 µM | 1.87 µM | 21.2 µM | 0.693 µM | 19.3 µM
CO[C@@H]1/C=C\C=C(/C)C(=O)NC2=CC(=O)C(NCCN(C)C)=C(C[C@@H](C)C[C@@H](OC)[C@@H](O)[C@H](C)/C=C(\C)[C@H]1OC(N)=O)C2=O | < 0.013 µM | 0.379 µM | < 0.01 µM and 0.0487 µM | 20.6 µM | 0.019 µM and 0.018 µM | 7.26 µM and 2.24 µM | < 0.01 µM | 5.13 µM and 12.4 µM | 0.0196 µM | 2.06 µM and 1.27 µM |  | 4.06 µM and 10.9 µM |  | > 100 µM and 32.4 µM | < 0.01 µM and 0.0228 µM | 0.709 µM and 3.57 µM |  | 31.2 µM and 12.4 µM | < 0.01 µM and 0.0264 µM | 33.6 µM and 17.8 µM
ClCc1cccc(Cn2cnc3c(NC45CC6CC(CC(C6)C4)C5)ncnc32)c1 | 15.7 µM | 31.7 µM | 19.1 µM | 46.2 µM | 15.5 µM | 39.3 µM | 17.3 µM | 46.6 µM | 16 µM | 37.4 µM | 20.4 µM | 47.5 µM | 25 µM | > 78.7 µM | 17.4 µM | 39.2 µM | 22.9 µM | 69.2 µM | 19 µM | 40.2 µM
O=C1Nc2ccc(C(=O)c3ccco3)cc2/C1=C/c1cc(Cl)c(O)c(Cl)c1 | 1.78 µM | 15.3 µM | 4.8 µM | > 23.8 µM | 9.89 µM | > 25 µM | 4.75 µM | > 18.4 µM | 4.79 µM | 17.9 µM | 4.16 µM | > 25 µM | 4.17 µM | > 18.1 µM | 3.91 µM | 11.9 µM | 6.98 µM | > 24.1 µM | 6.52 µM | > 24.1 µM
Cc1nc2sc(C(=O)Nc3cccc(Cl)c3C)c(N)c2cc1C(=O)/C=C/c1ccccc1 | 0.188 µM | 0.711 µM | 0.206 µM | 1.32 µM | 0.786 µM | 2.26 µM | 0.769 µM | 2.84 µM | 1.5 µM | 12.6 µM | 0.183 µM | 0.817 µM | 0.641 µM | 2.88 µM | 0.172 µM | 0.999 µM | 0.483 µM | 1.68 µM | 0.33 µM | 1.54 µM
CSc1ccc(C2=NN(C(=O)c3ccc(F)cc3)C(c3ccc(F)cc3)C2)cc1 (centres undefined) | 3.62 µM | 12.3 µM | 14.2 µM | 34.2 µM | 14 µM | 32.3 µM | 14.6 µM | 29.3 µM | 14.7 µM | 28.3 µM | 5.39 µM | 20.5 µM | 18.3 µM | 32.6 µM | 13.3 µM | 27.7 µM | 13.4 µM | 34.3 µM | 6.43 µM | 22.2 µM
Nc1ccc(N(S(=O)(=O)c2ccccc2)S(=O)(=O)c2ccccc2)c(Cl)c1 |  | > 100 µM |  | > 100 µM |  | > 100 µM |  | > 100 µM |  | > 100 µM |  | > 100 µM |  | > 100 µM |  | > 100 µM |  | > 100 µM |  | > 100 µM
CN1CCN(CCCN)CC1 |  | > 100 µM |  | > 100 µM |  | > 100 µM |  | > 100 µM |  | > 100 µM |  | > 100 µM |  | > 100 µM |  | > 100 µM |  | > 100 µM |  | > 100 µM
